Experimental findings from patent US20240124454A1, “TRICYCLIC COMPOUND AND USE THEREOF” (NANJING ZAIMING PHARMACEUTICAL CO., LTD., priority 2020, published 2024) are described below.

For one assay, the target named is MAT2A (Homo sapiens (Human), UniProt P31153). The experiment in a line: MAT2A biochemical test (inorganic phosphate colorimetric, PiColorLock). Conditions: read-out: MAT2A inhibitory Activity IC50. The method, boiled down: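 Compounds tested from 10 μM top concentration in 3-fold dilutions, preincubated 120 min at room temperature with MAT2A ([…] final) in Tris/KCl/MgCl2/EDTA/BSA buffer. Reaction started with […] L-methionine and 400 μM ATP, run 90 min at room temperature; phosphate read by PiColorLock after 30 min. IC50 fitted from % inhibition versus no-enzyme and DMSO controls.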

Assay [1] has as its system HCT116 MTAP^−/− cells. In words: Cell proliferation inhibition test (Cell-Titer Glo), HCT116 MTAP−/−. The assay is classed as cell-based, human. Conditions: Homo sapiens, HCT-116, 144 h, 6 days, read-out: HCT116 MTAP−/− Antiproliferative activity IC50. As to the method: (§1) Test Example 3. Cell Proliferation Inhibition Test of Human Colon Cancer HCT116 WT Cells and HCT116 MTAP-1-Cells
(§2) The brief introduction of the test principle: After the test MAT2A inhibitor was incubated with cancer cells for a period of time, the effect of the test compound on cell proliferation was measured using a cell proliferation count method based on the ATP content.
(§3) Reference: The experiment referred to the method disclosed in patent WO2018045071.
(§4) Material and cell: HCT116 WT cells and HCT116 MTAP^−/− cells were purchased from KYinno; fetal bovine serum, McCoy's 5a culture medium, and penicillin-streptomycin were purchased from Gibco Company (U.S.), 96-well plates were purchased from Corning Company (U.S.), and the Cell-Titer Glo reagent was purchased from Promega Company (U.S.).
(§5) Cell culture: HCT116 WT cells and HCT116 MTAP^−/− cells were cultured with a McCoy's 5a medium containing 10% fetal bovine serum+1% penicillin-streptomycin at 37° C. with 5% CO2.
(§6) Cells at logarithmic growth phase were available for the experiment.
(§7) Cell proliferation activity test: The Cell-Titer Glo reagent was used to test the compound for inhibitory activity on proliferation of both HCT116 WT and HCT116 MTAP^−/− cell strains. The cells were adjusted to a concentration of 400 cells per well, seeded on a 96-well plate, and incubated overnight at 37° C. with 5% CO2.
(§8) In the experimental group, the test compound was diluted sequentially with DMSO and a culture medium, and transferred to a cell plate at a final concentration of 10 μM, 3-fold dilution. The cells were continuously cultured at 37° C. with 5% CO2 for 6 days. The Cell-Titer Glo reagent was added and the cell activity was measured.
(§9) A negative control group and a positive control group were respectively used as Bottom and Top. The negative control group was not added with cells, only added with the culture medium in the same volume, and other operations were consistent with those of the experimental group. The positive control group was not added with the test compound, only added with DMSO in the same volume, and other operations were consistent with those of the experimental group.
(§10) The % Compound inhibition was calculated and fitted to give the IC50 of the compound.
(§11) % Compound inhibition=1-100%×(Signal−Bottom)/(Top−Bottom).
(§12) Signal referred to the signal value of the experimental group, Bottom referred to the average signal value of the negative control group, and Top referred to the average signal value of the positive control group.
(§13) HCT116 MTAP^−/− cells are cells not expressing MTAP protein obtained by site-directed knockout of wild type HCT116 (HCT116 WT) cells by gene knockout. Synthetic lethality will occur due to MAT2A inhibition and the deletion of MTAP, thereby causing tumor cell death. The activity and selectivity of the MAT2A inhibitor can be evaluated by testing the antiproliferative activity of the MAT2A inhibitor on human colon cancer HCT116 MTAP^−/− cells and human colon cancer HCT116 WT.

Assay [2] has as its system HCT116 MTAP^−/− cells. In words: Determination of intracellular SAM level by LC-MS/MS. The assay is classed as cell-based. Conditions: Homo sapiens, HCT-116, 6 h, read-out: SAM production inhibitory activity IC50. The procedure: Test Example 2. Determination of Intracellular SAM Level
The brief introduction of the test principle: After the test MAT2A inhibitor was incubated with cancer cells for a period of time, the cells were lysed with a stop reagent to quench the activity of the MAT2A enzyme. The catalytic product SAM of MAT2A in the cell lysate was quantitatively determined by LC-MS/MS, and thus the activity of MAT2A in the cell was reflected.
as §3
Material and cell: HCT116 MTAP^−/− cells were purchased from KYinno; fetal bovine serum, McCoy's 5a culture medium, and penicillin-streptomycin were purchased from Gibco Company (U.S.), and 96-well plates were purchased from Corning Company (U.S.).
Cell culture: HCT116 MTAP^−/− cells were cultured with a McCoy's 5a medium containing 10% fetal bovine serum+1% penicillin-streptomycin at 37° C. with 5% CO2. Cells at logarithmic growth phase were available for the experiment.
LC-MS/MS detection: The effect of the compound on the SAM production level in HCT116 MTAP^−/− cell strains was detected by LC-MS/MS. The cells were adjusted to a concentration of 50000 cells per well, seeded on a 96-well plate, and incubated overnight at 37° C. with 5% CO2. In the experimental group, the test compound was dissolved in DMSO, diluted sequentially with DMSO and a culture medium, and transferred to a cell plate at a final concentration of 10 μM, 3-fold dilution. The cells were continuously cultured at 37° C. with 5% CO2 for 6 h. The supernatant was pipetted off. After the cells were washed once with PBS, glacial acetic acid was added to lyse the cells. After the lysate was processed, the SAM concentration was determined by LC-MS/MS analysis.
A negative control group and a positive control group were respectively used as Bottom and Top. The negative control group was added with 10 μM positive compound (compound 072 of Example 51 of patent WO2021139775A1) in the same volume, and other operations were consistent with those of the experimental group. The positive control group was not added with the test compound, only added with DMSO in the same volume, and other operations were consistent with those of the experimental group.
as §10
% Compound inhibition=1−100%×(Signal−Bottom)/(Top−Bottom)
as §12

A further assay relates to HCT116 WT cells. The experiment in a line: Cell proliferation inhibition test (Cell-Titer Glo), HCT116 WT. Conditions: Homo sapiens, HCT-116, 144 h, 6 days, read-out: HCT116 WT Antiproliferative activity IC50. The assay is classed as cell-based, human. As to the method:
as §1, §2, §3, §4, §5, §6, §7, §8, §9, §10, §11, §12, §13

Read-outs that look alike come from different tables or passages of the source. Where only a bound is given, the exact number is not on record here.

Sequence of MAT2A (P31153 whole entry): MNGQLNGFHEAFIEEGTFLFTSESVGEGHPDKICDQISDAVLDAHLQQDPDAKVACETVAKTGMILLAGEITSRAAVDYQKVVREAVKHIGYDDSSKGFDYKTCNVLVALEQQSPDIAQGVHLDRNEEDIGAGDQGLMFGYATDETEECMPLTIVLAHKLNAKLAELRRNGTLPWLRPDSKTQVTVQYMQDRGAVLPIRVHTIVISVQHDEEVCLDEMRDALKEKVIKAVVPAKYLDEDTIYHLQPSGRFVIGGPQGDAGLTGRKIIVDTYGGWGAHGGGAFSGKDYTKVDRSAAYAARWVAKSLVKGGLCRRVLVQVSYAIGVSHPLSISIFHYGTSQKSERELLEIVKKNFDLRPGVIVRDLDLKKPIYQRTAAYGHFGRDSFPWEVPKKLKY

With `Cc1ncccc1-n1c(=O)c2ncn(C)c2c2ccc(C(F)(F)F)nc21` (single isomer, unassigned) [Compound 20-P1, 1-methyl-5-(2-methylpyridin-3-yl)-7-(trifluoromethyl)-1,5-dihydro-4H-imidazo[4,5-c][1,8]naphthyridin-4-one], the IC50 on MAT2A (class symbols) is less than 100 nM; on MAT2A (numeric values), 20.5 nM; in the assay on HCT116 MTAP^−/− cells [1], 33 nM; in the assay on HCT116 MTAP^−/− cells [2], 1.6 nM; in the assay on HCT116 WT cells, 237 nM.
On to `Cn1cnc2c(=O)n(-c3cccc(C#N)c3Cl)c3nc(C(F)(F)F)ccc3c21` (single isomer, unassigned) [Compound 73-P2, 2-chloro-3-(1-methyl-4-oxo-7-(trifluoromethyl)-1,4-dihydro-5H-imidazo[4,5-c][1,8]naphthyridin-5-yl)benzonitrile], for which the IC50 on MAT2A (class symbols) is less than 100 nM; on MAT2A (numeric values) it was 27.3 nM; in the assay on HCT116 MTAP^−/− cells [1], 194 nM; in the assay on HCT116 WT cells, 2210 nM.
As to `Cc1ncccc1-n1c(=O)c2ncoc2c2ccc(C(F)(F)F)cc21` (single isomer, unassigned) [Compound 82-P2, 5-(2-methylpyridin-3-yl)-7-(trifluoromethyl)oxazolo[4,5-c]quinolin-4(5H)-one], the IC50 at MAT2A (class symbols) is less than 100 nM; on MAT2A (numeric values), 23.1 nM; in the assay on HCT116 MTAP^−/− cells [1], 50.2 nM; in the assay with HCT116 WT cells, 271 nM.
In the same order, the values of `Cc1ncccc1-n1c(=O)c2ncoc2c2ccc(Cl)cc21` (single isomer, unassigned) [Compound 83-P2, 7-chloro-5-(2-methylpyridin-3-yl)oxazolo[4,5-c]quinolin-4(5H)-one] are less than 100 nM, 23.1 nM, 54.3 nM and 203 nM.
In the case of `O=c1c2nc[nH]c2c2ccc(C(F)(F)F)nc2n1-c1ccccc1Cl` [Compound 1, 5-(2-chlorophenyl)-7-(trifluoromethyl)-1,5-dihydro-4H-imidazo[4,5-c][1,8]naphthyridin-4-one], the IC50 on MAT2A (class symbols) is less than 100 nM; on MAT2A (numeric values), 31.9 nM; in the assay on HCT116 MTAP^−/− cells [1], 115 nM; in the assay on HCT116 MTAP^−/− cells [2], 3.8 nM; with HCT116 WT cells, 816 nM.
Take `COc1nc2c(=O)n(-c3ccccc3Cl)c3nc(C(F)(F)F)ccc3c2[nH]1` [Compound 5, 5-(2-chlorophenyl)-2-methoxy-7-(trifluoromethyl)-1,5-dihydro-4H-imidazo[4,5-c][1,8]naphthyridin-4-one]: the IC50 was less than 100 nM on MAT2A (class symbols), 41.6 nM at MAT2A (numeric values), 274 nM in the assay with HCT116 MTAP^−/− cells [1] and greater than 10000 nM in the assay with HCT116 WT cells.
In the case of `O=c1c2[nH]ncc2c2ccc(C(F)(F)F)nc2n1-c1ccccc1Cl` [Compound 6, 5-(2-chlorophenyl)-7-(trifluoromethyl)-3,5-dihydro-4H-pyrazolo[3,4-c][1,8]naphthyridin-4-one], the IC50 at MAT2A (class symbols) is less than 100 nM; on MAT2A (numeric values) it was 50.1 nM; in the assay with HCT116 MTAP^−/− cells [1], 288 nM; in the assay on HCT116 WT cells, 1110 nM.
Take `O=c1c2nc(C(F)(F)F)[nH]c2c2ccc(C(F)(F)F)nc2n1-c1ccccc1Cl` [Compound 9, 5-(2-chlorophenyl)-2,7-bis(trifluoromethyl)-1,5-dihydro-4H-imidazo[4,5-c][1,8]naphthyridin-4-one]: the IC50 on MAT2A (class symbols) is less than 100 nM; on MAT2A (numeric values), 29.6 nM; with HCT116 MTAP^−/− cells [1], 426 nM; in the assay on HCT116 WT cells, 4180 nM.
Consider `O=c1c2ncoc2c2ccc(C(F)(F)F)nc2n1-c1cccc(F)c1Cl` [Compound 35, 5-(2-chloro-3-fluorophenyl)-7-(trifluoromethyl)oxazolo[4,5-c][1,8]naphthyridin-4(5H)-one], for which the IC50 at MAT2A (class symbols) was less than 100 nM; at MAT2A (numeric values), 49 nM; in the assay with HCT116 MTAP^−/− cells [1], 238 nM; in the assay with HCT116 WT cells it was 1210 nM.
In the case of `Cc1ccc2c3c(ncn3C)c(=O)n(-c3cccc(F)c3Cl)c2n1` [Compound 38, 5-(2-chloro-3-fluorophenyl)-1,7-dimethyl-1,5-dihydro-4H-imidazo[4,5-c][1,8]naphthyridin-4-one], the IC50 at MAT2A (class symbols) is less than 100 nM; at MAT2A (numeric values) it was 82 nM; in the assay on HCT116 MTAP^−/− cells [1], 130 nM; with HCT116 WT cells, 605 nM.
For `[2H]C([2H])([2H])n1cnc2c(=O)n(-c3cccc(F)c3Cl)c3nc(C(F)(F)F)ccc3c21` [Compound 44, 5-(2-chloro-3-fluorophenyl)-1-(methyl-d3)-7-(trifluoromethyl)-1,5-dihydro-4H-imidazo[4,5-c][1,8]naphthyridin-4-one], the IC50 on MAT2A (class symbols) is less than 100 nM; on MAT2A (numeric values) it was 49.5 nM; in the assay on HCT116 MTAP^−/− cells [1] it was 71.5 nM; with HCT116 WT cells it was 667 nM.
With `Cn1cnc2c(=O)n(-c3cccnc3)c3nc(C(F)(F)F)ccc3c21` [Compound 64, 1-methyl-5-(pyridin-3-yl)-7-(trifluoromethyl)-1,5-dihydro-4H-imidazo[4,5-c][1,8]naphthyridin-4-one], the figures for the IC50 on MAT2A (class symbols), in the assay with HCT116 MTAP^−/− cells [1] and in the assay with HCT116 WT cells were less than 100 nM, 398 nM and 1050 nM, respectively.
Consider `Cn1cnc2c(=O)n(-c3cccc(F)c3Cl)c3nc(C(F)(F)F)ncc3c21` [Compound 65, 5-(2-chloro-3-fluorophenyl)-1-methyl-7-(trifluoromethyl)-1,5-dihydro-4H-imidazo[4′,5′:4,5]pyrido[2,3-d]pyrimidin-4-one], for which the IC50 on MAT2A (class symbols) was less than 100 nM; at MAT2A (numeric values) it was 78.3 nM; in the assay with HCT116 MTAP^−/− cells [1], 188 nM; in the assay with HCT116 WT cells it was 859 nM.
On to `COc1ncccc1-n1c(=O)c2ncn(C)c2c2ccc(C(F)(F)F)nc21` [Compound 68, 5-(2-methoxypyridin-3-yl)-1-methyl-7-(trifluoromethyl)-1,5-dihydro-4H-imidazo[4,5-c][1,8]naphthyridin-4-one], for which the IC50 was less than 100 nM at MAT2A (class symbols), 53.5 nM at MAT2A (numeric values), 394 nM in the assay with HCT116 MTAP^−/− cells [1] and greater than 10000 nM in the assay with HCT116 WT cells.
`[2H]C([2H])([2H])n1cnc2c(=O)n(-c3cccnc3C)c3nc(C(F)(F)F)ccc3c21` [Compound 72, 1-(methyl-d3)-5-(2-methylpyridin-3-yl)-7-(trifluoromethyl)-1,5-dihydro-4H-imidazo[4,5-c][1,8]naphthyridin-4-one]: the IC50 is less than 100 nM at MAT2A (class symbols), 52.1 nM on MAT2A (numeric values), 191 nM in the assay with HCT116 MTAP^−/− cells [1] and 970 nM in the assay with HCT116 WT cells.
